Laboratory results from US20240335421A1, “ANETHOLE TRITHIONE FOR THE TREATMENT OF VASCULITIDES” (FRÉDÉRIC MARIN, priority 2021, published 2024).

What was measured:
[1] = system: IL-10 production by LPS-activated human macrophages; test: IL-10 production by LPS-activated human macrophages (multiplex detection); type: cell-based; settings: ATT 10 μM, LPS 1 μg/mL, 48 hours, multiplex assay, FIG. 1C
Method: (§1) CD14^+ human macrophages isolated from healthy donors were cultured with LPS (1 μg/mL) and ATT (10 μM) for 48 hours. At the end of the culture, the supernatants were collected and cytokine production was evaluated.
(§2) Production of TNF-α was measured by ELISA. Production of TNF-α and IL-10 were measured using a multiplex detection technique.

[2] = system: Adult human primary ventricular cardiomyocytes; test: Human primary cardiomyocyte contractility assay after exposure to Kawasaki patient serum; type: cell-based; settings: 12 hours exposure to KD serum + ATT 1 μM
Method: Adult human primary ventricular cardiomyocytes were isolated from two healthy donors by AnaBios (San Diego, USA), using their CardioPRIME™ proprietary protocol.
These isolated cardiomyocytes were exposed for 12 hours to serum obtained from Kawasaki patients in acute crisis (between 2-6 days), supplemented or not with 1 μM of ATT. In parallel, cardiomyocytes were exposed to serum from Wegener's disease patients or from convalescent Kawasaki patients, under the same conditions.
The CardioPRIME™ protocol, run on a MultiCell platform by IonOptix, allows to measure several parameters. Upon electrical field stimulation to elicit contractions (tracked by the shape change in individual cardiomyocytes under optical bright field microscopy), the contractility transients could be analyzed for changes in contraction in the different conditions (amplitude of sarcomere shortening, peak height, maximum sarcomere departure velocity, maximum sarcomere return velocity, and decay time to 30% and 90% relaxation).

[3] = system: TNF-α production in LPS-activated macrophages; test: TNF-α production by LPS-activated human macrophages (ELISA); type: cell-based; settings: ATT 10 μM, LPS 1 μg/mL, 48 hours, FIG. 1A
Method: as §1, §2

pulmonary arterial rings [4] = test: Relaxation of phenylephrine pre-constricted pulmonary arterial rings (organ bath); design: species or system Wistar rats
Method: (§3) Intrapulmonary arteries of the first order (IPA1) of Wistar rats (male, 300 g) were divided into short tubular segments with an external diameter of ≈1.5-2 mm and used for isometric contraction measurement.
(§4) Arterial rings were mounted in isolated organ bath systems (EMKA Technologies), containing Krebs solution (118 mM NaCl, 4.7 mM KCl, 1.2 mM MgSO4, […], 1.2 mM KH2PO4, 2.5 mM CaCl2), and 11 mM D-glucose, pH 7.4) at 37° C. and bubbled continuously with […].
(§5) Arterial rings were stretched to a basal tension of 0.8 to 1.0 g according to their diameter. Tissues were allowed to equilibrate for 1 hour in Krebs solution and washed out every 15 minutes. A high KCl solution (80 mM) was applied in order to obtain a reference contraction used to normalize subsequent contractile responses.
Relaxation was assessed by injecting ATT (10 μM) on phenylephrine [Phe] (30 nM; Sigma) pre-constricted pulmonary arterial rings when contraction reached its steady-state.
The role of endothelium on ATT relaxant effect was assessed as aforementioned with L-NAME pre-incubation or CHAPS perfusion. Endothelial function was tested on each ring by examining the relaxation induced by 100 μM carbamylcholine (Sigma) on 1 μM or 30 nM Phe-induced pre-constricted pulmonary arterial rings. Passive and active mechanical properties were assessed using transducer systems, coupled to IOX2 software (v2.10.8, EMKA technologies, Paris, France) in order to facilitate data acquisition and analysis. Data were then analyzed using two-way ANOVA with Bonferroni post-tests (Prism 5 v.5.01).

[5] = system: pulmonary arterial rings from rats with PH; test: Chronic endothelium dysfunction by hypobaric hypoxia, in vivo minipump treatment, ex vivo 5-HT reactivity; settings: 3 weeks hypobaric hypoxia, ATT 0.7 mg/mL by abdominal minipump, no ATT in the organ bath, FIG. 4
Method: In order to investigate the protective effects of ATT on chronic endothelium damage, rats were housed during 3 weeks in hypobaric hypoxia chambers (50 kPa or 10% O2).
Continuous treatment was induced through a minipump placed in the abdominal cavity to deliver ATT (0.7 mg/mL) or its placebo (sulfobutylether beta-cyclodextrin) during the whole hypoxia.
After euthanasia of the animal, pulmonary arterial rings were placed in an organ bath and the reactivity of the vessel was investigated by using cumulative concentration-response curve with 5-HT (10 nM to 100 μM). This ex vivo part of the study was conducted without any addition of ATT in the organ bath, meaning that the effect was exclusively related to the chronic in vivo treatment through the minipump.

[6] = system: TNF-α production by LPS-activated human macrophages; test: TNF-α production by LPS-activated human macrophages (multiplex detection); type: cell-based; settings: ATT 10 μM, LPS 1 μg/mL, 48 hours, multiplex assay, FIG. 1B
Method: as §1, §2

pulmonary arterial rings [7] = test: 5-HT contractile reactivity of pulmonary arterial rings with endothelium dysfunction (organ bath); design: species or system Wistar rats; settings: ATT 10 μM, 30 minutes preincubation
Method: as §3, §4, §5
At the end of the experiment, endothelial function was tested on each ring by examining the relaxation induced by carbamylcholine, a potent vascular relaxing agent (100 μM; Sigma) on 1 μM or 30 nM Phe-induced pre-constricted pulmonary arterial rings. Passive and active mechanical properties were assessed using transducer systems, coupled to IOX2 software (v2.10.8, EMKA technologies, Paris, France) in order to facilitate data acquisition and analysis. Data were then analyzed using two-way ANOVA with Bonferroni post-tests (Prism 5 v.5.01).
Contractile responses were tested by constructing a cumulative concentration-response curve (CCRC) to 5-hydroxytryptamine [5-HT] (10 nM to 100 μM; Sigma). When indicated, tissues were preincubated during 30 minutes with ATT (10 μM), and then CCRC to 5-HT was performed in the presence or absence of the drug.
Evaluation of the role of endothelium on ATT effect was assessed using N^ω-nitro-L-arginine methyl ester [L-NAME] (100 μM, 30 minutes preincubation; Sigma) to inhibit nitric oxide-dependent relaxation, or 3-[(3-cholamidopropyl) dimethylammonio]-1-propanesulfonate [CHAPS] (0.3% in water, perfusion before mounting; Sigma) to physically damage the endothelium.

SMILES | production of IL-10 [1] [%] | loss of contractility (peak height, sarcomere shortening, maximum sarcomere departure velocity) ([2]; FIGS. 6A-C) | loss of relaxation (maximum sarcomere return velocity, decay time to 90% and 30% relaxation) ([2]; FIGS. 6D-F) | production of TNF-α vs. LPS-activated condition [3] [%] | amplitude of relaxation, ATT vs. CHAPS+ATT (pulmonary arterial rings [4]; ATT 10 μM on 30 nM phenylephrine pre-constricted rings, FIG. 3) | effect of pre-treatment with L-NAME or CHAPS on the relaxation mediated by the substance (pulmonary arterial rings [4]; ATT 10 μM on 30 nM phenylephrine pre-constricted rings, L-NAME 100 μM or CHAPS 0.3%, FIG. 3) | hyper-reactivity of the vessel induced by 5-HT after chronic hypoxia [5] | TNF-α level in LPS-activated human macrophages [6] [%] | 5-HT concentration response curve and maximum efficacy in presence of ATT and CHAPS (pulmonary arterial rings [7]; CHAPS 0.3%, compared with normal endothelium function, FIG. 2A) | 5-HT concentration response curve with L-NAME (pulmonary arterial rings [7]; L-NAME 100 μM, FIG. 2B) | maximum effect of 5-HT with L-NAME (pulmonary arterial rings [7]; L-NAME 100 μM, FIG. 2B) | relaxation under endothelium dysfunctions induced by L-NAME or CHAPS (pulmonary arterial rings [4]; carbamylcholine 100 μM, Phe pre-constricted rings, data not shown)
COc1ccc(-c2cc(=S)ss2)cc1 [ATT, 5-(4-methoxyphenyl)-3H-1,2-dithiole-3-thione] | −60.3 | prevent this loss of contractility | prevent the loss of relaxation | −88 | similar | failed 1 to affect | fully abolished | −51.2 | not significantly different | markedly shifted | significantly reduced | –
C[N+](C)(C)CCOC(N)=O.[Cl-] [carbamylcholine] | – | – | – | – | – | – | – | – | – | – | – | fully abolished
